Measured values as given in the NIST ThermoML archive (doi:10.1021/je400056z).
Numbers after ± are expanded uncertainties.

Test: xn = mol fraction of the nth substance listed
Conditions: Liquid, Vibrating tube method

CCCCCCCCCCCCC [tridecane] + O=C=O
Conditions | mass density [kg/m3]
323.16 K, 14000 kPa, x2 = 0.2526 | 751.2 ± 0.3
323.16 K, 14000 kPa, x2 = 0.7549 | 788.1 ± 0.3
323.16 K, 15000 kPa, x2 = 0.0955 | 748.5 ± 0.4
323.16 K, 15000 kPa, x2 = 0.2526 | 752.1 ± 0.4
323.16 K, 15000 kPa, x2 = 0.7549 | 791.5 ± 0.3
323.16 K, 16000 kPa, x2 = 0.0955 | 749.2 ± 0.4
323.16 K, 16000 kPa, x2 = 0.2526 | 752.9 ± 0.4
323.16 K, 16000 kPa, x2 = 0.7549 | 794.6 ± 0.3
323.16 K, 17000 kPa, x2 = 0.0955 | 750 ± 0.4
323.16 K, 17000 kPa, x2 = 0.2526 | 753.7 ± 0.4
323.16 K, 17000 kPa, x2 = 0.7549 | 798.1 ± 0.3
323.16 K, 18000 kPa, x2 = 0.0955 | 750.7 ± 0.4
323.16 K, 18000 kPa, x2 = 0.2526 | 754.4 ± 0.4
323.16 K, 18000 kPa, x2 = 0.7549 | 801.2 ± 0.3
323.16 K, 19000 kPa, x2 = 0.0955 | 751.4 ± 0.4
323.16 K, 19000 kPa, x2 = 0.2526 | 755.2 ± 0.4
323.16 K, 19000 kPa, x2 = 0.7549 | 804.1 ± 0.3
323.16 K, 20000 kPa, x2 = 0.0955 | 752.1 ± 0.4
323.16 K, 20000 kPa, x2 = 0.2526 | 755.9 ± 0.4
323.16 K, 20000 kPa, x2 = 0.7549 | 807 ± 0.3
323.16 K, 21000 kPa, x2 = 0.0955 | 752.8 ± 0.4
323.16 K, 21000 kPa, x2 = 0.2526 | 756.6 ± 0.4
323.16 K, 21000 kPa, x2 = 0.7549 | 809.5 ± 0.3
323.16 K, 22000 kPa, x2 = 0.0955 | 753.4 ± 0.4
323.16 K, 22000 kPa, x2 = 0.2526 | 757.3 ± 0.4
323.16 K, 22000 kPa, x2 = 0.7549 | 812.4 ± 0.3
323.16 K, 23000 kPa, x2 = 0.0955 | 754.1 ± 0.4
323.16 K, 23000 kPa, x2 = 0.2526 | 758 ± 0.4
323.16 K, 23000 kPa, x2 = 0.7549 | 815 ± 0.3
323.16 K, 24000 kPa, x2 = 0.0955 | 754.7 ± 0.4
323.16 K, 24000 kPa, x2 = 0.2526 | 758.7 ± 0.4
323.16 K, 24000 kPa, x2 = 0.7549 | 817.5 ± 0.3
323.16 K, 25000 kPa, x2 = 0.0955 | 755.3 ± 0.4
323.16 K, 25000 kPa, x2 = 0.2526 | 759.3 ± 0.4
323.19 K, 8000 kPa, x2 = 0.5259 | 758.8 ± 0.3
323.19 K, 9000 kPa, x2 = 0.5259 | 760.1 ± 0.3
323.19 K, 10000 kPa, x2 = 0.5259 | 761.4 ± 0.3
323.19 K, 11000 kPa, x2 = 0.5259 | 762.6 ± 0.3
323.19 K, 12000 kPa, x2 = 0.5259 | 763.8 ± 0.3
323.19 K, 13000 kPa, x2 = 0.5259 | 764.9 ± 0.3
323.19 K, 14000 kPa, x2 = 0.5259 | 766 ± 0.3
323.19 K, 15000 kPa, x2 = 0.5259 | 767.2 ± 0.3
323.19 K, 16000 kPa, x2 = 0.5259 | 768.2 ± 0.3
323.19 K, 17000 kPa, x2 = 0.5259 | 769.3 ± 0.3
323.19 K, 18000 kPa, x2 = 0.5259 | 770.4 ± 0.3
323.19 K, 19000 kPa, x2 = 0.5259 | 771.4 ± 0.4
323.19 K, 20000 kPa, x2 = 0.5259 | 772.4 ± 0.4
323.19 K, 21000 kPa, x2 = 0.5259 | 773.3 ± 0.4
323.19 K, 22000 kPa, x2 = 0.5259 | 774.3 ± 0.4
323.19 K, 23000 kPa, x2 = 0.5259 | 775.3 ± 0.4
323.19 K, 24000 kPa, x2 = 0.5259 | 776.2 ± 0.4
323.19 K, 25000 kPa, x2 = 0.5259 | 777 ± 0.4
333.14 K, 13000 kPa, x2 = 0.8978 | 737.1 ± 0.4
333.14 K, 14000 kPa, x2 = 0.8978 | 745.4 ± 0.4
333.14 K, 15000 kPa, x2 = 0.8978 | 754 ± 0.4
333.14 K, 16000 kPa, x2 = 0.8978 | 761.2 ± 0.4
333.14 K, 17000 kPa, x2 = 0.8978 | 767.9 ± 0.4
333.14 K, 18000 kPa, x2 = 0.8978 | 774.1 ± 0.4
333.14 K, 19000 kPa, x2 = 0.8978 | 779.5 ± 0.4
333.14 K, 20000 kPa, x2 = 0.8978 | 784.8 ± 0.4
333.14 K, 21000 kPa, x2 = 0.8978 | 789.8 ± 0.4
333.14 K, 22000 kPa, x2 = 0.8978 | 794.7 ± 0.4
333.14 K, 23000 kPa, x2 = 0.8978 | 799.2 ± 0.4
333.14 K, 24000 kPa, x2 = 0.8978 | 803.5 ± 0.4
333.14 K, 25000 kPa, x2 = 0.8978 | 807.8 ± 0.4
333.16 K, 8000 kPa, x2 = 0.5259 | 749 ± 0.3
333.16 K, 9000 kPa, x2 = 0.5259 | 750.4 ± 0.3
333.16 K, 10000 kPa, x2 = 0.5259 | 751.7 ± 0.3
333.16 K, 11000 kPa, x2 = 0.5259 | 753 ± 0.3
333.16 K, 12000 kPa, x2 = 0.5259 | 754.2 ± 0.3
333.16 K, 13000 kPa, x2 = 0.5259 | 755.5 ± 0.3
333.16 K, 14000 kPa, x2 = 0.5259 | 756.7 ± 0.3
333.16 K, 15000 kPa, x2 = 0.5259 | 757.9 ± 0.3
333.16 K, 16000 kPa, x2 = 0.5259 | 759 ± 0.3
333.16 K, 17000 kPa, x2 = 0.5259 | 760.2 ± 0.3
333.16 K, 18000 kPa, x2 = 0.5259 | 761.3 ± 0.4
333.16 K, 19000 kPa, x2 = 0.5259 | 762.4 ± 0.4
333.16 K, 20000 kPa, x2 = 0.5259 | 763.4 ± 0.4
333.16 K, 21000 kPa, x2 = 0.5259 | 764.5 ± 0.4
333.16 K, 22000 kPa, x2 = 0.5259 | 765.5 ± 0.4
333.16 K, 23000 kPa, x2 = 0.5259 | 766.5 ± 0.4
333.16 K, 24000 kPa, x2 = 0.5259 | 767.5 ± 0.4
333.16 K, 25000 kPa, x2 = 0.5259 | 768.5 ± 0.4
333.28 K, 12000 kPa, x2 = 0.7549 | 762.3 ± 0.3
333.28 K, 13000 kPa, x2 = 0.7549 | 766.5 ± 0.3
333.28 K, 14000 kPa, x2 = 0.7549 | 769.6 ± 0.3
333.28 K, 15000 kPa, x2 = 0.7549 | 772.6 ± 0.3
333.28 K, 16000 kPa, x2 = 0.7549 | 775.6 ± 0.3
333.28 K, 17000 kPa, x2 = 0.7549 | 778.6 ± 0.3
333.28 K, 18000 kPa, x2 = 0.7549 | 781.5 ± 0.3
333.28 K, 19000 kPa, x2 = 0.7549 | 784.5 ± 0.3
333.28 K, 20000 kPa, x2 = 0.7549 | 787.4 ± 0.4
333.28 K, 21000 kPa, x2 = 0.7549 | 790.4 ± 0.4
333.28 K, 22000 kPa, x2 = 0.7549 | 793.1 ± 0.4
333.28 K, 23000 kPa, x2 = 0.7549 | 795.7 ± 0.4
333.28 K, 24000 kPa, x2 = 0.7549 | 798.4 ± 0.4
333.28 K, 25000 kPa, x2 = 0.7549 | 800.8 ± 0.4
333.3 K, 9000 kPa, x2 = 0.0955 | 736.6 ± 0.3
333.3 K, 9000 kPa, x2 = 0.2526 | 739.5 ± 0.3
333.3 K, 10000 kPa, x2 = 0.0955 | 737.4 ± 0.3
333.3 K, 10000 kPa, x2 = 0.2526 | 740.4 ± 0.3
333.3 K, 11000 kPa, x2 = 0.0955 | 738.3 ± 0.3
333.3 K, 11000 kPa, x2 = 0.2526 | 741.4 ± 0.3
333.3 K, 12000 kPa, x2 = 0.0955 | 739.1 ± 0.4
333.3 K, 12000 kPa, x2 = 0.2526 | 742.3 ± 0.3
333.3 K, 13000 kPa, x2 = 0.0955 | 739.9 ± 0.4
333.3 K, 13000 kPa, x2 = 0.2526 | 743.1 ± 0.3
333.3 K, 14000 kPa, x2 = 0.0955 | 740.8 ± 0.4
333.3 K, 14000 kPa, x2 = 0.2526 | 744 ± 0.4
333.3 K, 15000 kPa, x2 = 0.0955 | 741.6 ± 0.4
333.3 K, 15000 kPa, x2 = 0.2526 | 744.9 ± 0.4
333.3 K, 16000 kPa, x2 = 0.0955 | 742.3 ± 0.4
333.3 K, 16000 kPa, x2 = 0.2526 | 745.7 ± 0.4
333.3 K, 17000 kPa, x2 = 0.0955 | 743.1 ± 0.4
